Patent EP1206258B1, “COMPOSITIONS CONTAINING ESTERS FOR TREATING PARASITIC INFESTATIONS OF ORGANISMS” (priority 1999, dated 2001)

Legend:
Aspergillus nidulans = assay: growth inhibition test on SAB agar, A. nidulans; assay type: cell-based
Description: The antifungal activity of ethyl trans-cinnamate against a number of different fungi was investigated by means of in a simple growth inhibition test.
The following quantities of Ethyl trans-Cinnamate were added to Sabourand Dextrose agar (SAB); 50 ml L^-1, 4ml L^-1, 2ml L^-1, 1ml L^-1, 400 µl L^-1, 200 µl L^-1 and 40 µl L^-1. […] These were then autoclaved and poured into standard Petri dishes. […] Duplicate plates of each concentration, plus control plates containing only SAB Agar, where then separately inoculated with, four different species of fungi, these were Aspergillus nidulans, Penicillium digitatum, Rhizopus arrhizus and Fusarium culmorum. Inoculation was carried out using a single stab at the centre of each Petri dish. The plates were then incubated at 30°C for 6 days and daily measurements of mycobial growth where taken every 24 hours.

Acarus siro = assay: further residual filter paper bioassay on grain/flour mite Acarus siro (Table 2b); details: for % mortality: ethanol control 24.00
Description: A further study was carried out to investigate the effect of Ethyl cinnamate on the grain/flour mite Acarus siro using a residual filter paper bioassay. Mites from a colony grown at 25°C ± 85% RH were removed using a spatular and placed into a petri dish. 275 µ of the cinnamate was placed onto a filter paper in one well of a 6 well (17 ml) cell culture plate and likewise, 275 µ of DH2O was placed on another piece of 4 cm Whatman filter paper in a second well. Mixed instars (male + female) were added to each well. The actual number of instars was unknown in each case, since the test only sought to establish the presence of activity; measured in terms of cidal effect (knockdown). The duration of the test was 5 ± days. Both treatments were incubated at 25°C ± 85% RH and each well was checked 4 times daily. Small amounts of food mix of yeastea 20B and wheat germ in the ratio 3 : 1 were included on the filter paper in both treatments.
The treatment was later modified : 2, 10 cm Whatman filter papers were cut to ø of 3 cm and placed in the mite culture. After 10 minutes they were removed using forceps. The mites were then swept into each well respective of treatment. The cinnamate provided too glutenous (viscous) to be used undiluted. Therefore, it was dissolved using 10 fold dilutions in ethanol. Therefore 30 µ cinnamate : 270 µ ethanol to the extent of 10-4. The control was ethanol.
The above experiment was repeated.

SMILES: CCOC(=O)/C=C/c1ccccc1 [trans-cinnamic acid ethyl ester]
- Level of Radial Growth (mm) of A. nidulans (Aspergillus nidulans; 1ml L^-1, Day 1): 0 mm
- Level of Radial Growth (mm) of A. nidulans (Aspergillus nidulans; 1ml L^-1, Day 2): 0 mm
- Level of Radial Growth (mm) of A. nidulans (Aspergillus nidulans; 1ml L^-1, Day 3): 6.0 mm
- Level of Radial Growth (mm) of A. nidulans (Aspergillus nidulans; 1ml L^-1, Day 4): 11.5 mm
- Level of Radial Growth (mm) of A. nidulans (Aspergillus nidulans; 1ml L^-1, Day 5): 16.5 mm
- Level of Radial Growth (mm) of A. nidulans (Aspergillus nidulans; 1ml L^-1, Day 6): 22.0 mm
- Level of Radial Growth (mm) of A. nidulans (Aspergillus nidulans; 2ml L^-1, Day 1): 0 mm
- Level of Radial Growth (mm) of A. nidulans (Aspergillus nidulans; 2ml L^-1, Day 2): 0 mm
- Level of Radial Growth (mm) of A. nidulans (Aspergillus nidulans; 2ml L^-1, Day 3): 0 mm
- Level of Radial Growth (mm) of A. nidulans (Aspergillus nidulans; 2ml L^-1, Day 4): 0 mm
- Level of Radial Growth (mm) of A. nidulans (Aspergillus nidulans; 2ml L^-1, Day 5): 6.5 mm
- Level of Radial Growth (mm) of A. nidulans (Aspergillus nidulans; 2ml L^-1, Day 6): 12.5 mm
- Level of Radial Growth (mm) of A. nidulans (Aspergillus nidulans; 4ml L^-1, Day 1): 0 mm
- Level of Radial Growth (mm) of A. nidulans (Aspergillus nidulans; 4ml L^-1, Day 2): 0 mm
- Level of Radial Growth (mm) of A. nidulans (Aspergillus nidulans; 4ml L^-1, Day 3): 0 mm
- Level of Radial Growth (mm) of A. nidulans (Aspergillus nidulans; 4ml L^-1, Day 4): 0 mm
- Level of Radial Growth (mm) of A. nidulans (Aspergillus nidulans; 4ml L^-1, Day 5): 0 mm
- Level of Radial Growth (mm) of A. nidulans (Aspergillus nidulans; 4ml L^-1, Day 6): 4.5 mm
- Level of Radial Growth (mm) of A. nidulans (Aspergillus nidulans; 40µl L^-1, Day 1): 0 mm
- Level of Radial Growth (mm) of A. nidulans (Aspergillus nidulans; 40µl L^-1, Day 2): 12.0 mm
- Level of Radial Growth (mm) of A. nidulans (Aspergillus nidulans; 40µl L^-1, Day 3): 23.0 mm
- Level of Radial Growth (mm) of A. nidulans (Aspergillus nidulans; 40µl L^-1, Day 4): 27.0 mm
- Level of Radial Growth (mm) of A. nidulans (Aspergillus nidulans; 40µl L^-1, Day 5): 32.5 mm
- Level of Radial Growth (mm) of A. nidulans (Aspergillus nidulans; 40µl L^-1, Day 6): 38 mm
- inhibition of growth (Aspergillus nidulans; 50ml L-^1 level): complete inhibition of growth
- Level of Radial Growth (mm) of A. nidulans (Aspergillus nidulans; 50 ml L^-1, Day 1): 0 mm
- Level of Radial Growth (mm) of A. nidulans (Aspergillus nidulans; 50 ml L^-1, Day 2): 0 mm
- Level of Radial Growth (mm) of A. nidulans (Aspergillus nidulans; 50 ml L^-1, Day 3): 0 mm
- Level of Radial Growth (mm) of A. nidulans (Aspergillus nidulans; 50 ml L^-1, Day 4): 0 mm
- Level of Radial Growth (mm) of A. nidulans (Aspergillus nidulans; 50 ml L^-1, Day 5): 0 mm
- Level of Radial Growth (mm) of A. nidulans (Aspergillus nidulans; 50 ml L^-1, Day 6): 0 mm
- Level of Radial Growth (mm) of A. nidulans (Aspergillus nidulans; 200µl L^-1, Day 1): 0 mm
- Level of Radial Growth (mm) of A. nidulans (Aspergillus nidulans; 200µl L^-1, Day 2): 9.5 mm
- Level of Radial Growth (mm) of A. nidulans (Aspergillus nidulans; 200µl L^-1, Day 3): 16.5 mm
- Level of Radial Growth (mm) of A. nidulans (Aspergillus nidulans; 200µl L^-1, Day 4): 23.0 mm
- Level of Radial Growth (mm) of A. nidulans (Aspergillus nidulans; 200µl L^-1, Day 5): 28.0 mm
- Level of Radial Growth (mm) of A. nidulans (Aspergillus nidulans; 200µl L^-1, Day 6): 34.5 mm
- Level of Radial Growth (mm) of A. nidulans (Aspergillus nidulans; 400µl L^-1, Day 1): 0 mm
- Level of Radial Growth (mm) of A. nidulans (Aspergillus nidulans; 400µl L^-1, Day 2): 5.5 mm
- Level of Radial Growth (mm) of A. nidulans (Aspergillus nidulans; 400µl L^-1, Day 3): 11.5 mm
- Level of Radial Growth (mm) of A. nidulans (Aspergillus nidulans; 400µl L^-1, Day 4): 18.0 mm
- Level of Radial Growth (mm) of A. nidulans (Aspergillus nidulans; 400µl L^-1, Day 5): 24.5 mm
- Level of Radial Growth (mm) of A. nidulans (Aspergillus nidulans; 400µl L^-1, Day 6): 30.0 mm
- % mortality (Acarus siro; Concentration 10-1 (dilution in ethanol)): 100.00%
- % mortality (Acarus siro; Concentration 10-2 (dilution in ethanol)): 100.00%
- % mortality (Acarus siro; Concentration 10-3 (dilution in ethanol)): 98.40%
- % mortality (Acarus siro; Concentration 10-4 (dilution in ethanol)): 86.00%
- time to 100% mortality (Acarus siro; undiluted dose, approximately): less than 15 minutes
